Our source for the IC50 values is US9884828B2, “Substituted cinnolines as inhibitors of LRRK2 kinase activity” (Imago Pharmaceuticals, Inc., priority 2011, dated 2018).

This experiment addresses recombinant GST-LRRK2 (wild-type) (Homo sapiens (Human), UniProt Q5S007). Description: LRRK2 TR-FRET peptide assay (in vitro kinase activity), wild-type. The class given is biochemical. As to conditions: 100 μM ATP, 100 nM biotin-LRRKtide substrate, 10 nM kinase, 60 minutes at room temperature. Here is the method:
Compounds as described herein (compounds of Formula I, e.g., compounds of the above Examples) are tested for their in vitro kinase activities using various LRRK2 (including LRRK2 G2019S mutant) assays. […] Serially diluted compounds (1% DMSO as co-solvent) were pre-incubated with recombinant GST-LRRK2 (wild-type, or G2019S mutant, Invitrogen) for 15 minutes at room temperature in 384-well Corning black plates. […] The inhibition of each well was calculated using the control and background readings for that plate. IC50 values were determined from dose-response curves using eight concentrations from the serial dilution of the test compounds.

Usually IC50 stands for the concentration that inhibits the measured activity by half.

recombinant GST-LRRK2 (wild-type), sequence (Q5S007 whole entry): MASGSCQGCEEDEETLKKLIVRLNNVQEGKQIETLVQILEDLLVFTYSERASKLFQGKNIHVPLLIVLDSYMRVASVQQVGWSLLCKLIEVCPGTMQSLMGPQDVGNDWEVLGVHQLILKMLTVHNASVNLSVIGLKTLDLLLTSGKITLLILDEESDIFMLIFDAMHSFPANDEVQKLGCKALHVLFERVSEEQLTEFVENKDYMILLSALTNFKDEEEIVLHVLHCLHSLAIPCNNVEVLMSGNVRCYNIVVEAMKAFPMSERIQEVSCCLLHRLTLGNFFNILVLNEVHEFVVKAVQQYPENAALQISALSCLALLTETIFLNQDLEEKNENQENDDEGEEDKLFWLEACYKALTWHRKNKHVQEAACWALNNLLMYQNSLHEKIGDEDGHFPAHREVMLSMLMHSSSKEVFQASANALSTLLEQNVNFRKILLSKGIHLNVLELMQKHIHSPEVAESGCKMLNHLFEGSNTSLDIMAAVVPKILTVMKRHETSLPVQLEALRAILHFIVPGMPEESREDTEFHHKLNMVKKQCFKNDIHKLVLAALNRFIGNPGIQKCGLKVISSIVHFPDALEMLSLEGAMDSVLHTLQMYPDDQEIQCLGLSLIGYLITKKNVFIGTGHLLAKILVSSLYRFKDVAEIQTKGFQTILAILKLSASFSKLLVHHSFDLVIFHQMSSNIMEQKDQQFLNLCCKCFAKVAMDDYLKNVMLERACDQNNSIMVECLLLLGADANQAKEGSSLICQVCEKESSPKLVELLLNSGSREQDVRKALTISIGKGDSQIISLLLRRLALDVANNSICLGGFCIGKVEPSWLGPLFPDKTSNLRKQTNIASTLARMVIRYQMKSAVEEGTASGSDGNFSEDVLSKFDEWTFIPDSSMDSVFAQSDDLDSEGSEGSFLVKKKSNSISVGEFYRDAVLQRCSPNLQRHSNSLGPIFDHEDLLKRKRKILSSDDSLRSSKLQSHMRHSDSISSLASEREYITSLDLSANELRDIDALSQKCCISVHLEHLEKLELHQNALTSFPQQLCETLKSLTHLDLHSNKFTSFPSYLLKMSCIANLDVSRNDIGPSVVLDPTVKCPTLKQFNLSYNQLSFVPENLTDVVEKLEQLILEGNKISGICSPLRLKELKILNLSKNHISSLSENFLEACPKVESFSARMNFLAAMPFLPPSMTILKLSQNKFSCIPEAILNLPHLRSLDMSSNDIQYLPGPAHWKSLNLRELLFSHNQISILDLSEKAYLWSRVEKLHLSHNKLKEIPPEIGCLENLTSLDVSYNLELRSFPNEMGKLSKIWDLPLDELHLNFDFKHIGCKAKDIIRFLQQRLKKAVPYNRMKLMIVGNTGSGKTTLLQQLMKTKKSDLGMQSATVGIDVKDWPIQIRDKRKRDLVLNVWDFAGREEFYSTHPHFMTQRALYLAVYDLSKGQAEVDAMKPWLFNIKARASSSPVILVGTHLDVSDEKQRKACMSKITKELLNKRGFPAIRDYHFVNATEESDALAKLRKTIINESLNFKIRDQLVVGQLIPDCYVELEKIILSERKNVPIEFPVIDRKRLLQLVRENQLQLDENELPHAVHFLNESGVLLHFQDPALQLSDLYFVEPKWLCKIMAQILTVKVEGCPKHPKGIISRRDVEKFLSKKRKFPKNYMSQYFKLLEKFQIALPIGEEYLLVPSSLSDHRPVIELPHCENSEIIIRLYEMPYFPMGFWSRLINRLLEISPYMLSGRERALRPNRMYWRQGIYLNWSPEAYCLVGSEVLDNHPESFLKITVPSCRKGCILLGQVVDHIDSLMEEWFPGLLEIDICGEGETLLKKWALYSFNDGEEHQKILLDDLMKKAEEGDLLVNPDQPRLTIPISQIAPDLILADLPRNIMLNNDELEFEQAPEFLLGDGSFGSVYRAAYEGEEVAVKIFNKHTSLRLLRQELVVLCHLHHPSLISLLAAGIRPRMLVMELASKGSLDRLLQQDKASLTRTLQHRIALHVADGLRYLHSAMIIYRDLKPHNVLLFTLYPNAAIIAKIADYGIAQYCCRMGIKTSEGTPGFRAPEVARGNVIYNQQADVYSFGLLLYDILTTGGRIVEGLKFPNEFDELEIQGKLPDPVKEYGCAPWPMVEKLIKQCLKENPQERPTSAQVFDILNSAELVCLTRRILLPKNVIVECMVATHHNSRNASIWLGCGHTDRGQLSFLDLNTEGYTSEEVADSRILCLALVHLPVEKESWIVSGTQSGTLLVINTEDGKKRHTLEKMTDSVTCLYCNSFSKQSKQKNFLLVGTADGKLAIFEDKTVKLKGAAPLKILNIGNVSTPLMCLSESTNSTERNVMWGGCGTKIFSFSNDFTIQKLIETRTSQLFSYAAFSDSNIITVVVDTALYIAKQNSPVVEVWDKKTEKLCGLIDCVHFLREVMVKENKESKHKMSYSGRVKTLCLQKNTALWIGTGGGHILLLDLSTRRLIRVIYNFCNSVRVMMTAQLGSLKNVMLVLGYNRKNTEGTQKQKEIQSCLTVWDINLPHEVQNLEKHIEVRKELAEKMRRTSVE

`CC(C)Nc1c(C(N)=O)nnc2ccc(N3CCOCC3)cc12` [Compound 4-191, 4-(isopropylamino)-6-morpholinocinnoline-3-carboxamide]: the IC50 was found to be 1300 nM.

As for `CS(=O)(=O)c1ccc(-c2ccc3c(NC4CCOCC4)c(C(N)=O)nnc3c2)cc1` [Compound 2-25, 7-(4-(methylsulfonyl)phenyl)-4-(tetrahydro-2H-pyran-4-ylamino)cinnoline-3-carboxamide], the IC50 was 23 nM.

Take `COc1cccc(Nc2ccc3c(NC(C)C)c(C(N)=O)nnc3c2)c1` [Compound 4-192, 4-(isopropylamino)-7-(3-methoxyphenylamino)cinnoline-3-carboxamide]: the IC50 was determined as 240 nM.

Consider `CC(C)Nc1c(C(N)=O)nnc2cc(N3CCCC3=O)ccc12` [Compound 4-85, 4-(isopropylamino)-7-(2-oxopyrrolidin-1-yl)cinnoline-3-carboxamide], for which the IC50 was found to be 170 nM.

With `C#Cc1nnc2cc(-c3ccc(S(C)(=O)=O)cc3)ccc2c1NC(C)C` [Compound 10-87, 3-ethynyl-N-isopropyl-7-(4-(methylsulfonyl)phenyl)cinnolin-4-amine], the IC50 worked out at 990 nM.

Take `NC(=O)c1nnc2cc(-c3ccncc3)ccc2c1NCCCO` [Compound 2-136, 4-(3-hydroxypropylamino)-7-(pyridin-4-yl)cinnoline-3-carboxamide]: the IC50 came to 120 nM.

Regarding `COc1ccc(C(=O)N(C)C)cc1-c1ccc2c(N[C@H](C)C3CC3)c(C(N)=O)nnc2c1` [Compound 2-107, (R)-4-(1-cyclopropylethylamino)-7-(5-(dimethylcarbamoyl)-2-methoxyphenyl)cinnoline-3-carboxamide], the IC50 came out at 48 nM.

As for `CNC(=O)c1nnc2cc(-c3ccc(S(C)(=O)=O)cc3)ccc2c1NC` [Compound 12-229, N-methyl-4-(methylamino)-7-(4-(methylsulfonyl)phenyl)cinnoline-3-carboxamide], the IC50 is above 1000 nM.

Turning to `CNc1c(C(N)=O)nnc2cc(-c3ccc(S(C)(=O)=O)cc3)ccc12` [Compound 2-94, 4-(methylamino)-7-(4-(methylsulfonyl)phenyl)cinnoline-3-carboxamide], the IC50 worked out at 120 nM.

In the case of `CS(=O)(=O)c1ccc(-c2ccc3c(NC45CC6CC(CC(C6)C4)C5)c(C(N)=O)nnc3c2)cc1` [Compound 2-88, 4-(1-adamantylamino)-7-(4-(methylsulfonyl)phenyl)cinnoline-3-carboxamide], the IC50 is 420 nM.

With `CC(C)Nc1c(C(N)=O)nnc2cc(-c3cscn3)ccc12` [Compound 5-55, 4-(isopropylamino)-7-(thiazol-4-yl)cinnoline-3-carboxamide], the IC50 was determined as 13 nM.

Regarding `CCNc1c(C(N)=O)nnc2cc(-c3ccc(S(C)(=O)=O)cc3)ccc12` [Compound 2-93, 4-(ethylamino)-7-(4-(methylsulfonyl)phenyl)cinnoline-3-carboxamide], the IC50 came out at 46 nM.

Regarding `COCc1ccccc1-c1ccc2c(N[C@H](C)C3CC3)c(C(N)=O)nnc2c1` [Compound 2-104, (R)-4-(1-cyclopropylethylamino)-7-(2-(methoxymethyl)phenyl)cinnoline-3-carboxamide], the IC50 amounted to 330 nM.

As for `C[C@@H](Nc1c(C(N)=O)nnc2cc(-c3cccc(S(C)(=O)=O)c3)ccc12)C1CC1` [Compound 2-111, (R)-4-(1-cyclopropylethylamino)-7-(3-(methylsulfonyl)phenyl)cinnoline-3-carboxamide], the IC50 is 1 nM.

In the case of `C[C@@H](Nc1c(C(N)=O)nnc2cc(-c3cccc4c3CC(=O)N4)ccc12)C1CC1` [Compound 2-119, (R)-4-(1-cyclopropylethylamino)-7-(2-oxoindolin-4-yl)cinnoline-3-carboxamide], the IC50 came to 18 nM.

As for `CCC(CC)Nc1c(C(N)=O)nnc2cc(-c3ccncc3)ccc12` [Compound 2-134, 4-(pentan-3-ylamino)-7-(pyridin-4-yl)cinnoline-3-carboxamide], the IC50 was 26 nM.

Take `CN1CCC(Nc2c(C(N)=O)nnc3cc(-c4ccc(S(C)(=O)=O)cc4)ccc23)CC1` [Compound 2-21, 4-(1-methylpiperidin-4-ylamino)-7-(4-(methylsulfonyl)phenyl)cinnoline-3-carboxamide]: the IC50 came to 180 nM.

On to `C[C@@H](Nc1c(C(N)=O)nnc2cc(-c3ccc(S(C)(=O)=O)cc3)ccc12)C1CC1` [Compound 2-41, (R)-4-(1-cyclopropylethylamino)-7-(4-(methylsulfonyl)phenyl)cinnoline-3-carboxamide], for which the IC50 was below 6 nM.

For `C[C@@H](Nc1c(C(N)=O)nnc2cc(-c3ccccc3Cl)ccc12)C1CC1` [Compound 2-117, (R)-7-(2-chlorophenyl)-4-(1-cyclopropylethylamino)cinnoline-3-carboxamide], the IC50 turned out to be 460 nM.

On to `C[C@@H](Nc1c(C(N)=O)nnc2cc(-c3ccc(=O)n(C)c3)ccc12)C1CC1` [Compound 2-112, (R)-4-(1-cyclopropylethylamino)-7-(1-methyl-6-oxo-1,6-dihydropyridin-3-yl)cinnoline-3-carboxamide], for which the IC50 is below 6 nM.

Take `Cc1nnc2cc(-c3ccc(S(C)(=O)=O)cc3)ccc2c1NC(C)C` [Compound 6-83, N-isopropyl-3-methyl-7-(4-(methylsulfonyl)phenyl)cinnolin-4-amine]: the IC50 came out at 21600 nM.

Regarding `C[C@@H](Nc1c(C(N)=O)nnc2cc(-c3ccccc3)ccc12)C1CC1` [Compound 2-110, (R)-4-(1-cyclopropylethylamino)-7-phenylcinnoline-3-carboxamide], the IC50 was 10 nM.

On to `COc1cc(N2CCOCC2=O)ccc1-c1ccc(OC)c(-c2ccc3c(N[C@H](C)C4CC4)c(C(N)=O)nnc3c2)c1` [Compound 9-210, (R)-4-(1-cyclopropylethylamino)-7-(2′,4-dimethoxy-4′-(3-oxomorpholino)biphenyl-3-yl)cinnoline-3-carboxamide], for which the IC50 was determined as 490 nM.

Turning to `COc1cc(Br)ccc1-c1ccc(OC)c(-c2ccc3c(N[C@H](C)C4CC4)c(C(N)=O)nnc3c2)c1` [Compound 2-203, (R)-7-(4′-bromo-2′,4-dimethoxybiphenyl-3-yl)-4-(1-cyclopropylethylamino)cinnoline-3-carboxamide], the IC50 was found to be 8700 nM.

For `CC(C)Nc1c(-c2cccnc2)nnc2cc(-c3ccc(S(C)(=O)=O)cc3)ccc12` [Compound 3-72, N-isopropyl-7-(4-(methylsulfonyl)phenyl)-3-(pyridin-3-yl)cinnolin-4-amine], the IC50 stood at 13000 nM.

With `CC(C)Nc1c(C(N)=O)nnc2cc(-c3ccc(S(C)(=O)=O)cc3)ccc12` [Compound 2-17, 4-(isopropylamino)-7-(4-(methylsulfonyl)phenyl)cinnoline-3-carboxamide], the IC50 amounted to 15 nM.

On to `COc1ccccc1Nc1ccc2c(NC(C)C)c(C(N)=O)nnc2c1` [Compound 4-189, 4-(isopropylamino)-7-(2-methoxyphenylamino)cinnoline-3-carboxamide], for which the IC50 turned out to be 68 nM.

Consider `CC(C)Nc1c(C(N)=O)nnc2cc(Sc3ccccc3)ccc12` [Compound 4-76, 4-(isopropylamino)-7-(phenylthio)cinnoline-3-carboxamide], for which the IC50 is 560 nM.

On to `COc1ncccc1Nc1ccc2c(NC(C)C)c(C(N)=O)nnc2c1` [Compound 4-190, 4-(isopropylamino)-7-(2-methoxypyridin-3-ylamino)cinnoline-3-carboxamide], for which the IC50 stood at 31 nM.

Take `COc1ccc(F)cc1-c1ccc2c(NC(C)C)c(C(N)=O)nnc2c1` [Compound 2-98, 7-(5-fluoro-2-methoxyphenyl)-4-(isopropylamino)cinnoline-3-carboxamide]: the IC50 is 590 nM.

Turning to `CC(C)Nc1c(C(N)=O)nnc2cc(-c3cccc(N4CCOCC4)c3)ccc12` [Compound 2-51, 4-(isopropylamino)-7-(3-morpholinophenyl)cinnoline-3-carboxamide], the IC50 was found to be 17 nM.

With `COc1ccc(-n2cccn2)cc1-c1ccc2c(N[C@H](C)C3CC3)c(C(N)=O)nnc2c1` [Compound 9-207, (R)-4-(1-cyclopropylethylamino)-7-(2-methoxy-5-(1H-pyrazol-1-yl)phenyl)cinnoline-3-carboxamide], the IC50 was 280 nM.

`CS(=O)(=O)c1ccc(-c2ccc3c(NC4CCC4)c(C(N)=O)nnc3c2)cc1` [Compound 2-19, 4-(cyclobutylamino)-7-(4-(methylsulfonyl)phenyl)cinnoline-3-carboxamide]: the IC50 is 10 nM.

Take `CC(C)Nc1c(C(N)=O)nnc2ccc(-c3cnn(C)c3)cc12` [Compound 2-129, 4-(isopropylamino)-6-(1-methyl-1H-pyrazol-4-yl)cinnoline-3-carboxamide]: the IC50 was found to be 380 nM.

With `C[C@@H](Nc1c(C(N)=O)nnc2cc(-c3ccc(N4CCOCC4=O)cc3)ccc12)C1CC1` [Compound 2-116, (R)-4-(1-cyclopropylethylamino)-7-(4-(3-oxomorpholino)phenyl)cinnoline-3-carboxamide], the IC50 was determined as 10 nM.

For the compound `CNC(=O)c1nnc2cc(-c3ccc(S(C)(=O)=O)cc3)ccc2c1N[C@H](C)C1CC1` [Compound 12-231, (R)-4-(1-cyclopropylethylamino)-N-methyl-7-(4-(methylsulfonyl)phenyl)cinnoline-3-carboxamide], the IC50 stood at 170 nM.

In the case of `COc1ccc(N2CCOC2=O)cc1-c1ccc2c(N[C@H](C)C3CC3)c(C(N)=O)nnc2c1` [Compound 9-206, (R)-4-(1-cyclopropylethylamino)-7-(2-methoxy-5-(2-oxooxazolidin-3-yl)phenyl)cinnoline-3-carboxamide], the IC50 worked out at 54 nM.

Regarding `CC(C)Nc1c(I)nnc2cc(-c3ccc(S(C)(=O)=O)cc3)ccc12` [Compound 3-68, 3-iodo-N-isopropyl-7-(4-(methylsulfonyl)phenyl)cinnolin-4-amine], the IC50 is 950 nM.
